Measurements as given in US10040804B2, “Compounds targeting proteins, compositions, methods, and uses thereof” (BioTheryX, Inc., priority 2016, dated 2018).

Legend:
IL-1β = IL-1β expression in LPS stimulated PBMCs (Meso Scale); format: cell-based, human; settings: Homo sapiens, PBMC; for inhibition at 0.1 µM: compound concentration 0.1 μM
Procedure: FIGS. 5 and 9A are graphs showing IL-1-beta expression in LPS stimulated peripheral blood mononuclear cells (PBMCs), PBMCs were plated in 96-well plates and pretreated with compound (Compound 1-9 individually) for 1 h, and then induced with 100 ng/mL LPS for 18-24 h. Cytokines in the media were measured according to MesoScale protocol. Negative control wells were treated with DMSO. Compound activity is measured as a percentage of LPS-induced activity. “Rev” is lenalidomide.
(§1) Frozen primary blood mononuclear cells (PBMCs) and frozen CD14+ mobilized peripheral blood monocytes were purchased from AllCells. Cells were quick thawed, and washed 1-time with RPMI-1640/10% FBS/1% Penicillin/1% Streptomycin and plated in 96-well plates at 200,000 cells per well. Cells were pretreated with DMSO only, Compound 5013 (lenolidamide) or the indicated compound for 1 h and then induced with 100 ng/mL lipopolysaccharide (LPS) for 18-24 h. The supernatant was analyzed for IL-1 beta, IL-6, and TNF-α using Meso Scale assay according to manufacturer's protocol. The negative control wells were treated with DMSO.
(§2) PBMCs: AllCells PB003F, Normal Peripheral Blood MNC.
(§3) Media: RPMI 1640/10% FBS/1% Pen-Strep.

IL-6 = IL-6 expression in LPS stimulated PBMCs (Meso Scale); format: cell-based, human; settings: Homo sapiens, PBMC, LPS-stimulated PBMCs; for inhibition at 0.1 µM: compound concentration 0.1 μM
Procedure: FIGS. 6 and 9B are graphs showing IL-6 expression in LPS stimulated peripheral blood mononuclear cells (PBMCs). PBMCs were plated in 96-well plates and pretreated with compound (Compound 1-9 individually) for 1 h, and then induced with 100 ng/mL LPS for 18-24 h. Cytokines were measured according to MesoScale protocol. Negative control wells were treated with DMSO. Compound activity was measured as a percentage of LPS-induced activity. “Rev” is lenalidomide.
as §1, §2, §3

TNF-α = TNF-α expression in LPS stimulated PBMCs (Meso Scale); format: cell-based, human; settings: Homo sapiens, PBMC; for inhibition at 0.1 µM: compound concentration 0.1 μM
Procedure: FIGS. 7 and 9C are graphs showing TNF-a expression in LPS stimulated peripheral blood mononuclear cells (PBMCs). PBMCs were plated in 96-well plates and pretreated with compound (Compound 1-9 individually) for 1 h, and then induced with 100 ng/mL LPS for 18-24 h. Cytokines in the media were measured according to MesoScale protocol. The negative control wells were treated with DMSO. Compound activity is measured as a percentage of LPS-induced activity. “Rev” is lenalidomide.
as §1, §2, §3

GSPT1 = target: T1, GSPT1 (Homo sapiens, UniProt P15170); experiment: GSPT1 protein levels by Western Blot analysis; format: cell-based; settings: DMSO = 100.00; for remaining activity at 0.1 µM: 100 nM compound concentration; for remaining activity at 1 µM: 1 μM compound concentration
T1 construct: Whole cell extracts were prepared using RIPA buffer according to manufacturer's protocol (Pierce); endogenous in cells
T1 sequence (P15170 whole entry): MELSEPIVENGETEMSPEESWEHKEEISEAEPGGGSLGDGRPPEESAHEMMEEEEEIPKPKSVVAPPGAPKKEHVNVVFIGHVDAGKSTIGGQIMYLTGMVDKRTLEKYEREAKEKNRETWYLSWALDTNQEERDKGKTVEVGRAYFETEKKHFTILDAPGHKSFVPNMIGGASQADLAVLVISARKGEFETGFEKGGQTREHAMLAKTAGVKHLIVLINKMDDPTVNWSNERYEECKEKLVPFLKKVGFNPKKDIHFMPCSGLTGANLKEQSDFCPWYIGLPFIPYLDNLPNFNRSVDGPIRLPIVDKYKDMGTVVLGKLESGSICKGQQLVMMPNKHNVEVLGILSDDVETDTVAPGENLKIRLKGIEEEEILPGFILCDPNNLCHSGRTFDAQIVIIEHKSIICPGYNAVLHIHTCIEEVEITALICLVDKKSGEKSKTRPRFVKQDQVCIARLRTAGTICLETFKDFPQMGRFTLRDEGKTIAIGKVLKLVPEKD
T1 sequence (Q96SW2 whole entry, further chain): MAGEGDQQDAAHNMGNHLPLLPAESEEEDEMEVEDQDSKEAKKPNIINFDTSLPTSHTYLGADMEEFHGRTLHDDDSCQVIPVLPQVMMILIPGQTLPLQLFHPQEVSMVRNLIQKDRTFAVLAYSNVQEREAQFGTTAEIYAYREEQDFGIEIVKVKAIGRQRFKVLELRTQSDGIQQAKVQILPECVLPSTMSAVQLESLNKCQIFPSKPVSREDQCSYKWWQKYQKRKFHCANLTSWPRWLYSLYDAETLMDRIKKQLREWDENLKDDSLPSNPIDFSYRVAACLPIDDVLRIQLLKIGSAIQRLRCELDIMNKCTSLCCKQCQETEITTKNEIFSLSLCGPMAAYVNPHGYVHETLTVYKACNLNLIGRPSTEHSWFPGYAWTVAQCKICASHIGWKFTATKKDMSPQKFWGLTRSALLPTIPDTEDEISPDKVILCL
T1 sequence (Q16531 whole entry partner): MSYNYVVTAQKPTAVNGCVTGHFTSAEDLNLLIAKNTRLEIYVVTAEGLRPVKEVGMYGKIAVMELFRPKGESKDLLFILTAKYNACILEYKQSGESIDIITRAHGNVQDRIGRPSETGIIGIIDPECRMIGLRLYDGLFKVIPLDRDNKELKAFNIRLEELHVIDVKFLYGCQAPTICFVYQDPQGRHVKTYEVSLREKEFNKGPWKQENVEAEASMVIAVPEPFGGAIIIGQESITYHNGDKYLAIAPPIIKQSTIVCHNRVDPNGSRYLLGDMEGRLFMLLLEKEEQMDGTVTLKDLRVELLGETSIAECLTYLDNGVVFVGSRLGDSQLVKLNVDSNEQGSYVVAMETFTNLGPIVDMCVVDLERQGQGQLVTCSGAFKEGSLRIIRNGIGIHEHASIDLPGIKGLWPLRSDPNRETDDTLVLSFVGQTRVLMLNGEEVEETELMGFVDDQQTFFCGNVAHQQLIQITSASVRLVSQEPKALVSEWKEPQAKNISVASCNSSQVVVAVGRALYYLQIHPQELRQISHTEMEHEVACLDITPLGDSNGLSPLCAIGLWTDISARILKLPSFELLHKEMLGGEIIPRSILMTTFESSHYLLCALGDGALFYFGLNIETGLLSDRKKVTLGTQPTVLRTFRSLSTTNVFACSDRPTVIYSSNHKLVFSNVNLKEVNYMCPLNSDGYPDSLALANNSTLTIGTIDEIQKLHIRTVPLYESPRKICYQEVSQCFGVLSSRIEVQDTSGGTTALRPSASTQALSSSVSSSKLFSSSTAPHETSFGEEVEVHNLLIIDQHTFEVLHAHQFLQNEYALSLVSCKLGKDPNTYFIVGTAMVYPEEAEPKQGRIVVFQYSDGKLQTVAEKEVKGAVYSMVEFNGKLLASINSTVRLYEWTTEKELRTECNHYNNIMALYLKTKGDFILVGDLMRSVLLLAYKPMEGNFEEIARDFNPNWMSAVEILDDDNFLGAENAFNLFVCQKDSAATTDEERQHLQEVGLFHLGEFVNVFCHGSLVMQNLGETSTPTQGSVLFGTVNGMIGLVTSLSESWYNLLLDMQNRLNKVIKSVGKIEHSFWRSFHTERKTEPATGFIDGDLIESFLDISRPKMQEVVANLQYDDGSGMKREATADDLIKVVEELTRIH
Procedure: Cells were lysed using RIPA Buffer (Pierce) and a Western Blot analysis was performed using anti-GSPT1 and anti-β-actin antibodies. FIG. 11B is a graph showing the expression levels of GSPT1 protein in Molm-13 (AML) cells. Protein expression levels were measured using the LiCor Odyssey instrumentation and methods.
Western Blot Protocol: Cell lines were grown in RPMI 1640 supplemented with streptomycin, penicillin and 10% fetal bovine serum.
Cells were cultured at approximately 10^6 cells per mL and incubated in DMSO or each of the indicated compounds for 6-8 h. Whole cell extracts were prepared using RIPA buffer according to manufacturer's protocol (Pierce). Briefly, 2×10^6 cells were washed once in PBS, the cell pellets were resuspended in RIPA buffer and allowed to incubate for 15 minutes on ice. Cells debris was removed by centrifugation and the cleared whole cell lysates were transferred to new tubes for further analysis.
For Western blot analysis, whole cell protein extracts were separated on 4-12% SDS-polyacrylamide gels, transferred to nitrocellulose, and probed with the indicated primary antibodies. Membranes were subsequently washed and probed with the appropriate IRDye secondary antibodies (LI-COR). The signal was detected using the Odyssey Imaging System (LI-COR).
GSPT1: Rabbit anti-GSPT1 was obtained from Abcam, ab126090 (Cambridge, Eng.)

H1048 cells = experiment: H1048 cell viability (CellTiter-Glo); format: cell-based; settings: Homo sapiens, NCI-H1048, 72 h, H1048, 3 days, DMSO = 100.00; for viability at 1 µM: 1 μM compound concentration; for viability at 10 µM: 10 μM compound concentration
Procedure: (§4) FIG. 10A is a graph showing antiproliferative activity in H1048 (SCLC) cells. FIG. 10B is a graph showing antiproliferative activity in Molm-13 (AML) cells. In FIGS. 10A and 10B, the cells were incubated for 72 hrs with Compound 9 at the indicated concentrations or DMSO. Compound activity was measured based on the signal from remaining viable cells.
(§5) Molm-13 cells were cultivated in RPMI-1640 (10% FBS/1% pen-strep) and were plated in white walled 96-well plates at 20,000 cells/well. H1048 cells were cultured in DMEM:F12 media supplemented with 5% fetal bovine serum, insulin, transferrin, sodium selenite, hydrocortisone, β-estradiol, penicillin and streptomycin, and were plated in white walled 96-well plates at 20,000 cells/well. MDA-MB-231 cells were cultured in DMEM media supplemented with 10% fetal bovine serum, penicillin and streptomycin, and were plated in white walled 96-well plates at 10,000 cells/well. Cells were treated with compound or DMSO (0.1%, control) and the cultures were incubated for 3 days at 37° C. and 5% CO2. Following the incubation period, 100 μL of CellTiterGlow (CTG) reagent (CellTiter-Glo® Luminescent Cell Viability Assay, Promega (Madison, Wis.)) was added to each well. Following a 10 min incubation with shaking, luminescence was measured using a Victor Wallac Luminometer.

Molm-13 cells = experiment: Molm-13 cell viability (CellTiter-Glo); format: cell-based; settings: Homo sapiens, MOLM-13, read-out: % Inhibition (MOLM-13 Cell Viability); for cytotoxicity at 0.1 µM: compound concentration 0.1 μM
Procedure: as §4, §5

MDA-MB-231 cells = experiment: MDA-MB-231 cell viability (CellTiter-Glo); format: cell-based; settings: Homo sapiens, 72 h, 3 days, DMSO = 100.00; for viability at 1 µM: 1 μM compound concentration; for viability at 10 µM: 10 μM compound concentration
Procedure: as §5

`Cc1ccc(NC(=O)NCc2scc3c2CN(C2CCC(=O)NC2=O)C3=O)cc1C(C)C` (centres unmarked) [Compound 47, 1-((5-(2,6-Dioxopiperidin-3-yl)-4-oxo-5,6-dihydro-4H-thieno[3,4-c]pyrrol-1-yl)methyl)-3-(3-isopropyl-4-methylphenyl)urea] was tested, and the inhibition at 0.1 µM (IL-1β) was 99%, the inhibition at 0.1 µM (IL-6) was 100% and the inhibition at 0.1 µM (TNF-α) was 97%. The remaining activity at 0.1 µM (GSPT1) was 0.64%, the remaining activity at 1 µM (GSPT1) was 2.61% and the viability at 1 µM (H1048 cells) was 8.91%. It also gave a viability at 10 µM (H1048 cells) of 8.58%, a cytotoxicity at 0.1 µM (Molm-13 cells) of 100% and a viability at 1 µM (MDA-MB-231 cells) of 21.8%. The viability at 10 µM (MDA-MB-231 cells) was 19.3%.

With `Cc1c(Cl)cc(NC(=O)NCc2scc3c2CN(C2CCC(=O)NC2=O)C3=O)cc1C(C)C` (centres unmarked) [Compound 48, 1-(3-Chloro-5-isopropyl-4-methylphenyl)-3-((5-(2,6-dioxopiperidin-3-yl)-4-oxo-5,6-dihydro-4H-thieno[3,4-c]pyrrol-1-yl)methyl)urea] the inhibition at 0.1 µM (IL-1β) was 96%, the inhibition at 0.1 µM (IL-6) was 100% and the inhibition at 0.1 µM (TNF-α) was 92%. For the same molecule, the remaining activity at 0.1 µM (GSPT1) was 1.46%, the remaining activity at 1 µM (GSPT1) was 3.85% and the viability at 1 µM (H1048 cells) was 9.03%. It also gave a viability at 10 µM (H1048 cells) of 6.89%, a cytotoxicity at 0.1 µM (Molm-13 cells) of 100% and a viability at 1 µM (MDA-MB-231 cells) of 22.2%. It also gave a viability at 10 µM (MDA-MB-231 cells) of 21.7%.

`Cc1cc(C)c(NC(=O)NCc2scc3c2CN(C2CCC(=O)NC2=O)C3=O)cc1Cl` (centres unmarked) [Compound 49, 1-(5-Chloro-2,4-dimethylphenyl)-3-((5-(2,6-dioxopiperidin-3-yl)-4-oxo-5,6-dihydro-4H-thieno[3,4-c]pyrrol-1-yl)methyl)urea] gave an inhibition at 0.1 µM (IL-1β) of 61%, an inhibition at 0.1 µM (IL-6) of 87% and an inhibition at 0.1 µM (TNF-α) of 62%. For the same molecule, the remaining activity at 0.1 µM (GSPT1) was 11.9%, the remaining activity at 1 µM (GSPT1) was 20% and the viability at 1 µM (H1048 cells) was 7.67%. For the same molecule, the viability at 10 µM (H1048 cells) was 6.1%, the cytotoxicity at 0.1 µM (Molm-13 cells) was 100% and the viability at 1 µM (MDA-MB-231 cells) was 24.3%. The viability at 10 µM (MDA-MB-231 cells) was 19.7%.

For `Cc1ccc(NC(=S)NCc2scc3c2CN(C2CCC(=O)NC2=O)C3=O)cc1Cl` (centres unmarked) [Compound 52, 1-(3-Chloro-4-methylphenyl)-3-((5-(2,6-dioxopiperidin-3-yl)-4-oxo-5,6-dihydro-4H-thieno[3,4-c]pyrrol-1-yl)methyl)thiourea], the inhibition at 0.1 µM (IL-1β) was 98%, the inhibition at 0.1 µM (IL-6) was 100% and the inhibition at 0.1 µM (TNF-α) was 95%. It also gave a remaining activity at 0.1 µM (GSPT1) of 0.58%, a remaining activity at 1 µM (GSPT1) of 1.05% and a viability at 1 µM (H1048 cells) of 9.22%. For the same molecule, the viability at 10 µM (H1048 cells) was 10.3%, the cytotoxicity at 0.1 µM (Molm-13 cells) was 99% and the viability at 1 µM (MDA-MB-231 cells) was 22.4%. For the same molecule, the viability at 10 µM (MDA-MB-231 cells) was 20.5%.

`Cc1ccc(NC(=O)NCc2scc3c2CN(C2CCC(=O)NC2=O)C3=O)cn1` (centres unmarked) [Compound 53, 1-((5-(2,6-Dioxopiperidin-3-yl)-4-oxo-5,6-dihydro-4H-thieno[3,4-c]pyrrol-1-yl)methyl)-3-(6-methylpyridin-3-yl)urea] gave an inhibition at 0.1 µM (IL-1β) of 60%, an inhibition at 0.1 µM (IL-6) of 90% and an inhibition at 0.1 µM (TNF-α) of 65%. For the same molecule, the remaining activity at 0.1 µM (GSPT1) was 23.5%, the remaining activity at 1 µM (GSPT1) was 6.18% and the viability at 1 µM (H1048 cells) was 8.51%. For the same molecule, the viability at 10 µM (H1048 cells) was 8.09%, the cytotoxicity at 0.1 µM (Molm-13 cells) was 100% and the viability at 1 µM (MDA-MB-231 cells) was 27.6%. For the same molecule, the viability at 10 µM (MDA-MB-231 cells) was 21.3%.

For `Cc1ccc(NC(=O)NCc2scc3c2CN(C2CCC(=O)NC2=O)C3=O)cc1C(F)(F)F` (centres unmarked) [Compound 54, 1-((5-(2,6-Dioxopiperidin-3-yl)-4-oxo-5,6-dihydro-4H-thieno[3,4-c]pyrrol-1-yl)methyl)-3-(4-methyl-3-(trifluoromethyl)phenyl)urea], the inhibition at 0.1 µM (IL-1β) was 96%, the inhibition at 0.1 µM (IL-6) was 100% and the inhibition at 0.1 µM (TNF-α) was 93%. It also gave a remaining activity at 0.1 µM (GSPT1) of 2.25%, a remaining activity at 1 µM (GSPT1) of 2.72% and a viability at 1 µM (H1048 cells) of 8.11%. For the same molecule, the viability at 10 µM (H1048 cells) was 6.12%, the cytotoxicity at 0.1 µM (Molm-13 cells) was 100% and the viability at 1 µM (MDA-MB-231 cells) was 22.6%. The viability at 10 µM (MDA-MB-231 cells) was 22.4%.

Work on `O=C1CCC(N2Cc3c(csc3CNC(=O)Nc3ccc(C(F)(F)F)c(Cl)c3)C2=O)C(=O)N1` (centres unmarked) [Compound 55, 1-(3-chloro-4-(trifluoromethyl)phenyl)-3-((5-(2,6-dioxopiperidin-3-yl)-4-oxo-5,6-dihydro-4H-thieno[3,4-c]pyrrol-1-yl)methyl)urea] yielded an inhibition at 0.1 µM (IL-1β) of 99%, an inhibition at 0.1 µM (IL-6) of 100% and an inhibition at 0.1 µM (TNF-α) of 96%. For the same molecule, the remaining activity at 0.1 µM (GSPT1) was 1.51%, the remaining activity at 1 µM (GSPT1) was 2.86% and the viability at 1 µM (H1048 cells) was 7.63%. The viability at 10 µM (H1048 cells) was 7.94%, the cytotoxicity at 0.1 µM (Molm-13 cells) was 100% and the viability at 1 µM (MDA-MB-231 cells) was 20.2%. It also gave a viability at 10 µM (MDA-MB-231 cells) of 19%.

`Cc1ccc(NC(=O)NCc2scc3c2CN([C@H]2CCCC(=O)NC2=O)C3=O)nc1Cl` [Compound 57, (S)-1-(6-Chloro-5-methylpyridin-2-yl)-3-((5-(2,7-dioxoazepan-3-yl)-4-oxo-5,6-dihydro-4H-thieno[3,4-c]pyrrol-1-yl)methyl)urea] gave an inhibition at 1 µM (IL-1β; compound concentration 1 μM) of 42%, an inhibition at 1 µM (IL-6; compound concentration 1 μM) of 32% and an inhibition at 1 µM (TNF-α; compound concentration 1 μM) of 44%. The remaining activity at 0.1 µM (GSPT1) was 265%, the remaining activity at 1 µM (GSPT1) was 28.4% and the viability at 1 µM (H1048 cells) was 12.4%. The viability at 10 µM (H1048 cells) was 8.7%, the cytotoxicity at 1 µM (Molm-13 cells; compound concentration 1 μM) was 45% and the viability at 1 µM (MDA-MB-231 cells) was 107%. The viability at 10 µM (MDA-MB-231 cells) was 52%.
